The results in this text go back to patent publication US20150141381A1, “TETRACYCLINE COMPOUNDS HAVING TARGET THERAPEUTIC ACTIVITIES” (Paratek Pharmaceuticals, Inc., priority 2001, published 2015).

The test system of test [1] is S. aureus RN450. Kind of test: In Vitro Anti-Bacterial Activity Assay (MIC), gram positive. The class given is cell-based. The conditions noted are these: for MIC: Staphylococcus aureus, RN450, 18 h.
The test system of test [2] is E. coli mL308 225. The test is described as follows: In Vitro Anti-Bacterial Activity Assay (MIC), gram negative. The class given is cell-based. The conditions noted are these: for MIC: Escherichia coli, ML308225, 18 h.
Setting [3] is: gram positive bacteria, read-out: Antibiotic Activity Gram + (MIC).
The mark [4] stands for this setting: gram negative bacteria, read-out: Antibiotic Activity Gram − (MIC).
The mark [5] stands for this setting: MIC class, Table 3, read-out: Antibiotic Activity Gram +.
Where [6] appears, read: MIC class, Table 3, read-out: Antibiotic Activity Gram −.
Setting [7] is: MIC class, Table 3 (Continued), read-out: Gram+ activity.
Setting [8] is: MIC class, Table 3 (Continued), read-out: Gram− activity.

Like-named read-outs stand apart in the source and are kept apart here.

With `CN(C)[C@@H]1C(O)=C(C(N)=O)C(=O)[C@@]2(O)C(O)=C3C(=O)c4c(O)ccc(-c5ccc(CNCC(F)(F)F)cc5)c4C[C@H]3C[C@@H]12` [drawing 3506], the “Antibiotic Activity Gram + (MIC)” value in test [1] (gram positive bacteria) is “** (compounds with MIC less than or equal to 4 μg/ml are indicated with **)”. For the same compound, the “Antibiotic Activity Gram − (MIC)” value in test [2] (gram negative bacteria) is listed as “** (compounds with MIC less than or equal to 4 μg/ml are indicated with **)”.
For the compound `Cc1ccc(-c2ccc(O)c3c2C[C@H]2C[C@H]4[C@H](N(C)C)C(O)=C(C(N)=O)C(=O)[C@@]4(O)C(O)=C2C3=O)cn1`, the MIC in test [1] (setting [3]) and in test [2] (setting [4]) was less than 4 µg/mL throughout.
Take `CN(C)c1cc(CCCNS(C)(=O)=O)c(O)c2c1C[C@H]1C[C@H]3[C@H](N(C)C)C(O)=C(C(N)=O)C(=O)[C@@]3(O)C(O)=C1C2=O`: the MIC in test [1] (setting [3]) and in test [2] (setting [4]) was greater than 4 µg/mL throughout.
In the case of `COc1ccc(NC(=O)Nc2cc(N(C)C)c3c(c2O)C(=O)C2=C(O)[C@]4(O)C(=O)C(C(N)=O)=C(O)[C@@H](N(C)C)[C@@H]4C[C@@H]2C3)cc1` [KB], the MIC in test [1] (setting [5]) is less than 4 µg/mL; in test [2] (setting [6]), greater than 4 µg/mL.
For the compound `CN(C)c1cc(CNCC(=O)O)c(O)c2c1C[C@H]1C[C@H]3[C@H](N(C)C)C(O)=C(C(N)=O)C(=O)[C@@]3(O)C(O)=C1C2=O`, the MIC in test [1] (setting [3]) and in test [2] (setting [4]) was greater than 4 µg/mL throughout.
Regarding `CN(C)c1cc(NCc2ccc(OC(F)(F)F)cc2)c(O)c2c1C[C@H]1C[C@H]3[C@H](N(C)C)C(O)=C(C(N)=O)C(=O)[C@@]3(O)C(O)=C1C2=O`, the MIC in test [1] (setting [3]) was less than 4 µg/mL; in test [2] (setting [4]), greater than 4 µg/mL.
For `CCN(CC)c1ccc(O)c2c1C[C@H]1C[C@H]3[C@H](N(C)C)C(O)=C(C(N)=O)C(=O)[C@@]3(O)C(O)=C1C2=O`, in that order: less than 4 µg/mL and less than 4 µg/mL.
With `CN(C)c1cc(C#Cc2ccc(F)cc2)c(O)c2c1C[C@H]1C[C@H]3[C@H](N(C)C)C(O)=C(C(N)=O)C(=O)[C@@]3(O)C(O)=C1C2=O`, the MIC in test [1] (setting [7]) and in test [2] (setting [8]) was less than 4 µg/mL in each case.
Take `CCOc1ccc(-c2ccc(O)c3c2C[C@H]2C[C@H]4C(N(C)C)C(O)=C(C(N)=O)C(=O)[C@@]4(O)C(O)=C2C3=O)cc1CNC(=O)NC(C)(C)C` (stereo partly drawn) [HK]: the MIC in test [1] (setting [5]) was less than 4 µg/mL; in test [2] (setting [6]) it was greater than 4 µg/mL.
For `CN(C)CCCc1ccc(O)c2c1C[C@H]1C[C@H]3[C@H](N(C)C)C(O)=C(C(N)=O)C(=O)[C@@]3(O)C(O)=C1C2=O` [BQ], in that order: less than 4 µg/mL and greater than 4 µg/mL.
For `CN(C)c1cc(NC(=S)Nc2cc(C(F)(F)F)cc(C(F)(F)F)c2)c(O)c2c1C[C@H]1C[C@H]3[C@H](N(C)C)C(O)=C(C(N)=O)C(=O)[C@@]3(O)C(O)=C1C2=O` [CI] the same measures were less than 4 µg/mL and greater than 4 µg/mL.
Consider `CN(C)c1cc(NCc2ccc(O)c(O)c2)c(O)c2c1C[C@H]1C[C@H]3[C@H](N(C)C)C(O)=C(C(N)=O)C(=O)[C@@]3(O)C(O)=C1C2=O`, for which the MIC was less than 4 µg/mL in test [1] (setting [3]) and greater than 4 µg/mL in test [2] (setting [4]).
As for `CN1CCC(NCc2ccc(O)c3c2C[C@H]2C[C@H]4[C@H](N(C)C)C(O)=C(C(N)=O)C(=O)[C@@]4(O)C(O)=C2C3=O)CC1` [KY], the MIC in test [1] (setting [5]) and in test [2] (setting [6]) was greater than 4 µg/mL throughout.
Take `C[C@H]1c2ccc(NC3CC(C)(C)NC(C)(C)C3)c(O)c2C(=O)C2=C(O)[C@]3(O)C(=O)C(C(N)=O)=C(O)[C@@H](N(C)C)[C@@H]3[C@@H](O)[C@@H]21`: the MIC in test [1] (setting [3]) is less than 4 µg/mL; in test [2] (setting [4]), greater than 4 µg/mL.
As for `CN(C)[C@@H]1C(O)=C(C(N)=O)C(=O)[C@@]2(O)C(O)=C3C(=O)c4c(O)ccc(C=CC#N)c4C[C@H]3C[C@@H]12` [NO], the MIC in test [1] (setting [5]) and in test [2] (setting [6]) was less than 4 µg/mL each time.
As to `CN(C)[C@@H]1C(O)=C(C(N)=O)C(=O)[C@@]2(O)C(O)=C3C(=O)c4c(O)ccc(C(=O)Cc5ccccn5)c4C[C@H]3C[C@@H]12` [EL], the MIC in test [1] (setting [5]) and in test [2] (setting [6]) was less than 4 µg/mL throughout.
For `CN(C)[C@@H]1C(O)=C(C(N)=O)C(=O)[C@@]2(O)C(O)=C3C(=O)c4c(O)ccc(-c5ccc(NC(=O)c6ccno6)cc5)c4C[C@H]3C[C@@H]12` [IN], the results for the MIC in test [1] (setting [5]) and in test [2] (setting [6]) were less than 4 µg/mL and greater than 4 µg/mL, respectively.
In the case of `C[C@H]1c2ccc(NC3CCN(C)CC3)c(O)c2C(=O)C2=C(O)[C@]3(O)C(=O)C(C(N)=O)=C(O)[C@@H](N(C)C)[C@@H]3[C@@H](O)[C@@H]21` [JF], the MIC in test [1] (setting [5]) and in test [2] (setting [6]) was less than 4 µg/mL in each case.
As for `CN(C)c1ccc(-c2cc(C(C)(C)C)c(O)c3c2C[C@H]2C[C@H]4[C@H](N(C)C)C(O)=C(C(N)=O)C(=O)[C@@]4(O)C(O)=C2C3=O)cc1`, the MIC in test [1] (setting [3]) and in test [2] (setting [4]) was greater than 4 µg/mL throughout.
For the compound `CCc1cc(CNC(C)=O)c(O)c2c1C[C@H]1C[C@H]3C(N(C)C)C(O)=C(C(N)=O)C(=O)[C@@]3(O)C(O)=C1C2=O` (stereo partly drawn) [EM], the MIC in test [1] (setting [5]) was less than 4 µg/mL; in test [2] (setting [6]), greater than 4 µg/mL.
In the case of `CCN(CC)Cc1cc(N(C)C)c2c(c1O)C(=O)C1=C(O)[C@]3(O)C(=O)C(C(N)=O)=C(O)[C@@H](N(C)C)[C@@H]3C[C@@H]1C2`, the figures for the MIC in test [1] (setting [3]) and in test [2] (setting [4]) were less than 4 µg/mL and greater than 4 µg/mL, respectively.
For `CN(C)C(=O)CNc1cc(N(C)C)c2c(c1O)C(=O)C1=C(O)[C@]3(O)C(=O)C(C(N)=O)=C(O)[C@@H](N(C)C)[C@@H]3C[C@@H]1C2`, in that order: greater than 4 µg/mL and greater than 4 µg/mL.
With `CN(C)CC(=O)NCc1cc(N(C)C)c2c(c1O)C(=O)C1=C(O)[C@]3(O)C(=O)C(C(N)=O)=C(O)[C@@H](N(C)C)[C@@H]3C[C@@H]1C2`, the MIC in test [1] (setting [3]) was less than 4 µg/mL; in test [2] (setting [4]), greater than 4 µg/mL.
For `CCCN(CCC)Cc1ccc(-c2ccc(O)c3c2C[C@H]2C[C@H]4[C@H](N(C)C)C(O)=C(C(N)=O)C(=O)[C@@]4(O)C(O)=C2C3=O)c2ccccc12` the same measures were less than 4 µg/mL and less than 4 µg/mL.
Turning to `CN(C)[C@@H]1C(O)=C(C(N)=O)C(=O)[C@@]2(O)C(O)=C3C(=O)c4c(O)ccc(-c5ccc(CO)cc5)c4C[C@H]3C[C@@H]12`, the MIC in test [1] (setting [3]) and in test [2] (setting [4]) was less than 4 µg/mL in each case.
On to `C#CCOC(=O)Nc1ccc2c(c1O)C(=O)C1=C(O)[C@]3(O)C(=O)C(C(N)=O)=C(O)[C@@H](N(C)C)[C@@H]3C[C@@H]1C2`, for which the MIC in test [1] (setting [3]) and in test [2] (setting [4]) was less than 4 µg/mL in each case.
`COc1ccc(CN(C)C)cc1-c1cc(C(C)(C)C)c(O)c2c1C[C@H]1C[C@H]3[C@H](N(C)C)C(O)=C(C(N)=O)C(=O)[C@@]3(O)C(O)=C1C2=O`: the MIC was less than 4 µg/mL in test [1] (setting [3]) and greater than 4 µg/mL in test [2] (setting [4]).
For `CN(C)[C@@H]1C(O)=C(C(N)=O)C(=O)[C@@]2(O)C(O)=C3C(=O)c4c(O)ccc(/C=C/c5ccc(C(F)(F)F)cc5)c4C[C@H]3C[C@@H]12` the same measures were less than 4 µg/mL and greater than 4 µg/mL.
For `CC1OC(=O)NC1COC(=O)N(Cc1cc(N(C)C)c2c(c1O)C(=O)C1=C(O)[C@]3(O)C(=O)C(C(N)=O)=C(O)[C@@H](N(C)C)[C@@H]3C[C@@H]1C2)CC(C)(C)C` (stereo partly drawn) the same measures were less than 4 µg/mL and greater than 4 µg/mL.
For `COC(=O)C(CO)NC(=O)c1cccc(-c2ccc(O)c3c2C[C@H]2C[C@H]4[C@H](N(C)C)C(O)=C(C(N)=O)C(=O)[C@@]4(O)C(O)=C2C3=O)c1` (stereo partly drawn), in that order: less than 4 µg/mL and greater than 4 µg/mL.
As for `COc1ccc(C#Cc2ccc(O)c3c2C[C@H]2C[C@H]4[C@H](N(C)C)C(O)=C(C(N)=O)C(=O)[C@@]4(O)C(O)=C2C3=O)cc1`, the MIC in test [1] (setting [7]) and in test [2] (setting [8]) was less than 4 µg/mL in each case.
Consider `CCCCCc1cc(N(C)C)c2c(c1O)C(=O)C1=C(O)[C@]3(O)C(=O)C(C(N)=O)=C(O)[C@@H](N(C)C)[C@@H]3C[C@@H]1C2` [DX], for which the MIC in test [1] (setting [5]) is less than 4 µg/mL; in test [2] (setting [6]), greater than 4 µg/mL.
For the compound `COc1ccc(CN2CCOCC2)cc1-c1ccc(O)c2c1C[C@H]1C[C@H]3[C@H](N(C)C)C(O)=C(C(N)=O)C(=O)[C@@]3(O)C(O)=C1C2=O` [BV], the MIC in test [1] (setting [5]) was less than 4 µg/mL; in test [2] (setting [6]) it was greater than 4 µg/mL.
For `CCOC(=O)/C=C/c1ccc2c(c1O)C(=O)C1=C(O)[C@]3(O)C(=O)C(C(N)=O)=C(O)[C@@H](N(C)C)[C@@H]3[C@@H](O)[C@@H]1C2C` (stereo partly drawn), the MIC in test [1] (setting [7]) and in test [2] (setting [8]) was less than 4 µg/mL throughout.
For `C[C@H]1c2c(-c3ccc4c(c3)OCO4)cc(-c3cccc4c3OCO4)c(O)c2C(=O)C2=C(O)[C@]3(O)C(=O)C(C(N)=O)=C(O)[C@@H](N(C)C)[C@@H]3[C@@H](O)[C@@H]21` [HF], the results for the MIC in test [1] (setting [5]) and in test [2] (setting [6]) were less than 4 µg/mL and greater than 4 µg/mL, respectively.
In the case of `C[C@H]1c2c(CN)cc(C(C)(C)C)c(O)c2C(=O)C2=C(O)[C@]3(O)C(=O)C(C(N)=O)=C(O)[C@@H](N(C)C)[C@@H]3[C@@H](O)[C@@H]21`, the MIC in test [1] (setting [3]) and in test [2] (setting [4]) was greater than 4 µg/mL in each case.
Take `CN(C)[C@@H]1C(O)=C(C(N)=O)C(=O)[C@@]2(O)C(O)=C3C(=O)c4c(O)ccc(-c5ccc(CNC(C)(C)C)o5)c4C[C@H]3C[C@@H]12` [MD]: the MIC in test [1] (setting [5]) and in test [2] (setting [6]) was less than 4 µg/mL each time.
For `CCOC(=O)C(Cc1ccccc1)NCc1ccc(OC)c(-c2ccc(O)c3c2C[C@H]2C[C@H]4[C@H](N(C)C)C(O)=C(C(N)=O)C(=O)[C@@]4(O)C(O)=C2C3=O)c1` (stereo partly drawn) [FZ], the MIC in test [1] (setting [5]) is less than 4 µg/mL; in test [2] (setting [6]), greater than 4 µg/mL.
Turning to `CC1CN(Cc2cc(N(C)C)c3c(c2O)C(=O)C2=C(O)[C@]4(O)C(=O)C(C(N)=O)=C(O)[C@@H](N(C)C)[C@@H]4C[C@@H]2C3)CC(C)O1` (stereo partly drawn), the MIC in test [1] (setting [3]) and in test [2] (setting [4]) was less than 4 µg/mL throughout.
